Experimental data published in ChEMBL document CHEMBL1152156, “A bulge binding agent with novel wedge-shape topology for stimulation of DNA triplet repeat strand slippage synthesis” (Bioorg Med Chem Lett, 2008).
Calls of active or inactive are those of the source. No cut-off for these calls is given here.

How the values were obtained:
[1] = Stimulation of DNA triplet repeat slippage synthesis using p33-labeled (ATT)3 and unlabeled (AAT)5 template assessed as number of base pairs
[2] = Binding affinity to ATT-bulge-DNA by surface plasmon resonance based assay
[3] = Stimulation of DNA triplet repeat slippage synthesis using p33-labeled (ATT)3 and unlabeled (AAT)5 template assessed as number of base pairs at 200 uM
[4] = Binding affinity to hairpin DNA by surface plasmon resonance based assay
[5] = Stimulation of DNA triplet repeat slippage synthesis using p33-labeled (ATT)3 and unlabeled (AAT)5 template assessed as number of base pairs at 400 uM
[6] = Stimulation of DNA triplet repeat slippage synthesis using p33-labeled (ATT)3 and unlabeled (AAT)5 template assessed as number of base pairs at 50 uM
[7] = Binding affinity to double strand DNA by surface plasmon resonance based assay
[8] = Stimulation of DNA triplet repeat slippage synthesis using p33-labeled (ATT)3 and unlabeled (AAT)5 template at 100 uM in presence of doxorubicin
[9] = Stimulation of DNA triplet repeat slippage synthesis using p33-labeled (ATT)3 and unlabeled (AAT)5 template assessed as number of base pairs at 100 uM

SMILES	Activity [1]	Activity [2]	Activity [3]	Kd [4]	Activity [5]	Activity [6]	Kd [7]	Ki [2]	Activity [8]	Activity [9]
c1ccc2c(c1)Nc1ccccc1S2	inactive	inactive	–	–	–	–	–	–	–	–
OC[C@H]1O[C@@H](OCCN2c3ccccc3Sc3ccccc32)[C@H](O)[C@@H](O)[C@@H]1O	–	–	32	140 µM	71	18	170 µM	41.5 µM	inactive	20
N[C@H]1[C@H](O[C@H]2C[C@H]3C(=O)c4cc5ccccc5cc4[C@H]3[C@@]23C(=O)CCc2ccccc23)O[C@H](CO)[C@@H](O)[C@@H]1O	Active	–	–	–	–	–	–	–	–	–
